Results published in ChEMBL document CHEMBL1201862, “PubChem BioAssay data set” (2004).
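Grown in 96-well plates, cells were treated for 48 hours with each compound at five concentrations. Insufficient inhibition: endpoint recorded as highest concentration tested. GI50: concentration for 50% inhibition of growth.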 Active and inactive are the calls of the source. Cut-off read from the data, not from the text of the source: active = GI50 up to about 1.1 µM and inactive = higher.

Columns and labels:
Assay in all cases: NCI-60 cell line screen, 48 h
HOP-62 = system: HOP-62
OVCAR-4 = system: OVCAR-4
TK-10 = system: TK-10
SF-539 = system: SF-539
SK-MEL-2 = system: SK-MEL-2
U-251 = system: U-251
COLO 205 = system: COLO 205
786-0 = system: 786-0
HCT-15 = system: HCT-15
SNB-19 = system: SNB-19
NCI-H460 = system: NCI-H460
Malme-3M = system: Malme-3M
OVCAR-3 = system: OVCAR-3
KM12 = system: KM12
CAKI-1 = system: CAKI-1
K562 = system: K562
IGROV-1 = system: IGROV-1
OVCAR-8 = system: OVCAR-8
HCC 2998 = system: HCC 2998

Measured: GI50

Oc1ccc(-c2n[nH]c(S)n2)cc1
> 100 µM: HCT-15
inactive: HOP-62 > 100 µM | OVCAR-4 > 100 µM | TK-10 > 100 µM | SF-539 > 100 µM | SK-MEL-2 > 100 µM | U-251 > 100 µM | COLO 205 > 100 µM | 786-0 > 100 µM | SNB-19 > 100 µM | NCI-H460 > 100 µM | Malme-3M > 100 µM | OVCAR-3 > 100 µM | KM12 > 100 µM | CAKI-1 > 100 µM | K562 > 100 µM | IGROV-1 > 100 µM | OVCAR-8 > 100 µM

Cc1n2nc(N)sc2n[n+]1Cc1ccccc1
inactive: HOP-62 72.6 µM | OVCAR-4 > 100 µM | TK-10 > 100 µM | SF-539 > 100 µM | SK-MEL-2 > 100 µM | U-251 77.3 µM | COLO 205 21.4 µM | 786-0 > 100 µM | SNB-19 > 100 µM | NCI-H460 > 10 µM | Malme-3M > 100 µM | OVCAR-3 89.9 µM | KM12 > 100 µM | CAKI-1 > 100 µM | K562 47.5 µM | IGROV-1 58.9 µM | OVCAR-8 > 100 µM
> 100 µM: HCT-15

COC(=O)C(C(=O)C(=O)Nc1ccc(C)cc1C)c1nc2ccc([N+](=O)[O-])cc2nc1O (stereo not drawn)
inactive: HOP-62 > 100 µM | OVCAR-4 > 100 µM | TK-10 > 100 µM | SF-539 > 100 µM | SK-MEL-2 > 100 µM | U-251 > 100 µM | COLO 205 95.7 µM | 786-0 > 100 µM | SNB-19 > 100 µM | NCI-H460 > 100 µM | Malme-3M > 100 µM | KM12 > 100 µM | CAKI-1 > 100 µM | K562 78.7 µM | IGROV-1 > 100 µM | OVCAR-8 > 100 µM
> 100 µM: HCT-15

CC(=O)OCC1OC(n2c(=O)[nH]c(=O)c3nn[nH]c32)C(OC(C)=O)C(OC(C)=O)C1OC(C)=O (stereo not drawn)
inactive: HOP-62 > 100 µM | OVCAR-4 66.5 µM | TK-10 > 100 µM | HCC 2998 > 100 µM | SK-MEL-2 > 100 µM | U-251 > 100 µM | COLO 205 > 100 µM | 786-0 > 100 µM | SNB-19 > 100 µM | NCI-H460 > 100 µM | Malme-3M > 100 µM | CAKI-1 > 100 µM | K562 > 100 µM | IGROV-1 > 100 µM | OVCAR-8 > 100 µM
> 100 µM: HCT-15

Cc1ccc(/C=C(\NC(=O)c2ccccc2)c2nc3ccccc3[nH]2)cc1
inactive: HOP-62 > 100 µM | OVCAR-4 70.5 µM | TK-10 > 100 µM | HCC 2998 49.5 µM | SF-539 > 100 µM | SK-MEL-2 31.6 µM | U-251 41.2 µM | COLO 205 48.2 µM | 786-0 39.3 µM | SNB-19 39.4 µM | NCI-H460 37.2 µM | Malme-3M 45.5 µM | OVCAR-3 46.9 µM | KM12 40.6 µM | IGROV-1 > 100 µM | OVCAR-8 43.8 µM
45.6 µM: HCT-15

O=C(O)C12C3CCC(C3)C1(C(=O)O)C1CCC2C1 (stereo not drawn)
39.8 µM: HCT-15
inactive: HOP-62 > 100 µM | TK-10 > 100 µM | HCC 2998 > 100 µM | SK-MEL-2 > 100 µM | COLO 205 33 µM | 786-0 > 100 µM | SNB-19 > 100 µM | NCI-H460 81.3 µM | Malme-3M > 100 µM | OVCAR-3 > 100 µM | KM12 > 100 µM | CAKI-1 > 100 µM | K562 89.7 µM | IGROV-1 > 100 µM | OVCAR-8 > 100 µM

CC(C)(C)OC(=O)NCCNC(=O)OCc1ccccc1
> 100 µM: HCT-15
inactive: HOP-62 > 100 µM | TK-10 > 100 µM | HCC 2998 > 100 µM | SF-539 > 100 µM | SK-MEL-2 > 100 µM | U-251 > 100 µM | COLO 205 > 100 µM | 786-0 > 100 µM | SNB-19 > 100 µM | NCI-H460 > 100 µM | Malme-3M > 100 µM | OVCAR-3 > 100 µM | KM12 > 100 µM | CAKI-1 > 100 µM | K562 85.9 µM | IGROV-1 > 100 µM | OVCAR-8 > 100 µM

c1ccc2c(c1)nnn2CNc1ccc(N2CCCCC2)cc1
> 100 µM: HCT-15
inactive: HOP-62 > 100 µM | OVCAR-4 > 100 µM | TK-10 > 100 µM | HCC 2998 > 100 µM | SF-539 > 100 µM | SK-MEL-2 > 100 µM | U-251 > 100 µM | COLO 205 > 100 µM | 786-0 > 100 µM | SNB-19 > 100 µM | NCI-H460 > 100 µM | Malme-3M > 100 µM | OVCAR-3 > 100 µM | KM12 > 100 µM | K562 > 100 µM | IGROV-1 > 100 µM | OVCAR-8 > 100 µM
